Reference: patent US4734418A, “Quinazoline compounds and antihypertensives” (priority 1984, dated 1988)
Read-outs that look alike come from different tables or passages of the source.

Test system: Spontaneously Hypertensive Rats
Assay: Test 1: antihypertensive effects (systolic tail artery blood pressure) and heart rate in spontaneously hypertensive rats, oral
Type: in vivo, rat (male, SHR)
Conditions: SHR, oral 1 mg/Kg; for change in vivo at 1 mg/kg: Rattus norvegicus; for Change (%) in heart rate: maximum value
Procedure: The antihypertensive effects of the certain compounds of this invention were studied in the following manner.
Among male, spontaneously hypertensive rats (SHRs) of 20 weeks of age or older and 350-430 g heavy all of which had developed hypertension, those having systolic blood pressures of 180 mmHg or higher were used in groups, each of which was constituted of 3-4 of the rats. […] Besides, heart rates were also measured simultaneously. The compounds were each dissolved or suspended in a 0.5% methylcellulose solution and then administered orally.
*All administered orally at a dosage of 1 mg/Kg except for the compounds
**Each percent change in heart rate is indicated by the corresponding

[1] = 1 hour, read-out: Antihypertensive effects, change (%) in blood pressure, 1 hour later
[2] = 3 hours, read-out: Antihypertensive effects, change (%) in blood pressure, 3 hours later
[3] = 6 hours, read-out: Antihypertensive effects, change (%) in blood pressure, 6 hours later
[4] = 24 hours, read-out: Antihypertensive effects, change (%) in blood pressure, 24 hours later

Compound	change in vivo at 1 mg/kg [1] [%]	change in vivo at 1 mg/kg [2] [%]	change in vivo at 1 mg/kg [3] [%]	change in vivo at 1 mg/kg [4] [%]	Change (%) in heart rate
COc1cc2nc(N3CCN(c4nc(N(C)C)c5cc(OC)c(OC)cc5n4)CC3)nc(N)c2cc1OC [Example 73]	-0.5	0	-7	-8	+4.3%
COc1cc2nc(N3CCN(c4ncc(C(=O)NC5CCCCC5)c(C)n4)CC3)nc(N)c2cc1OC [Example 45]	-1.5	-2.5	-8	-5.5	+4.2%
CCn1ccc2nc(N3CCN(c4ncc5cc(OC)c(OC)cc5n4)CC3)ncc2c1=O [Example 95, 6,7-Dimethoxy-2-(4-(5,6-dihydro-6-ethyl-5-oxopyrido[4,3-d]pyrimidine-2-yl)piperazino)quinazoline]	2.5	-2.9	-6.4	-3.9	+5.8%
COc1cc2nc(N3CCN(c4ncc(C(=O)N5CCCC5)c(C)n4)CC3)nc(N)c2cc1OC [Example 49]	-4.5	-10.6	-13.1	-7.5	+6.3%
CCN(CC)C(=O)c1cnc(N2CCN(c3nc(N)c4cc(OC)c(OC)cc4n3)CC2)nc1NC(C)C [Example 78]	-23.4	-33.7	-50.2	-18.5	+23.7%
COc1cc2nc(N3CCN(c4ncc5c(n4)CCCC(=O)N5)CC3)nc(N)c2cc1OC [Example 31]	-2.8	-8.5	-17.8	-3.8	–
CCn1cc(C)c2nc(N3CCN(c4nc(N)c5cc(OC)c(OC)cc5n4)CC3)ncc2c1=O [Example 12]	-11	-14.3	-19	-6.7	+7.0%
COc1cc2nc(N3CCN(c4ncc5c(n4)CN(C4CCCCC4)C5=O)CC3)nc(N)c2cc1OC [Example 91]	-4	-8	-12.9	-2.5	+8.2%
CCn1ccc2nc(N3CCN(c4nc(N)c5cc(OC)c(OC)c(OC)c5n4)CC3)ncc2c1=O.Cl [Example 81, 4-Amino-6,7,8-trimethoxy-2-(4-(5,6-dihydro-6-ethyl-5-oxopyrido[4,3-d]pyrimidin-2-yl)piperazino)quinazoline hydrochloride]	-0.5	-7.3	-12.1	-8.7	+3.8%
CCn1ccc(=O)c2cnc(N3CCN(c4nc(N)c5cc(OC)c(OC)cc5n4)CC3)nc21 [Example 20]	1.5	-12.5	-12	-2	+5.7%
COc1cc2nc(N3CCN(c4ncc(C(C)=O)c(C)n4)CC3)nc(N)c2cc1OC [Example 36]	-14.6	-16.5	-15	-2.4	+9.5%
COc1cc2nc(N3CCN(c4ncc5c(=O)n(CCO)ccc5n4)CC3)nc(N)c2cc1OC [Example 7]	1.5	-4.4	-9.3	-2.9	+2.8%
CCOC(=O)c1cnc(N2CCN(c3nc(N)c4cc(OC)c(OC)cc4n3)CC2)nc1NC [Example 55]	-6.5	-21.9	-29.9	-7.5	+7.0%
COc1cc2nc(N3CCN(c4ncc5c(=O)n(C)[nH]c5n4)CC3)nc(N)c2cc1OC.Cl [Example 83, 4-Amino-6,7-dimethoxy-2-(4-(2-methyl-3-oxo-2,3-dihydro-1H-pyrazolo[3,4-d]pyrimidine-6-yl)piperazino)quinazoline hydrochloride]	-3.9	-4.4	-5.3	-0.5	+5.6%
COc1cc2nc(N3CCN(c4ncc5c(n4)CN(CCc4ccccc4)C5=O)CC3)nc(N)c2cc1OC [Example 89]	-2.4	-13.3	-13.8	-2.9	+5.8%
CNC(=O)c1cnc(N2CCN(c3nc(N)c4cc(OC)c(OC)cc4n3)CC2)nc1NC [Example 68]	1.4	-19.6	-28.2	-11.5	+5.2%
CCn1cc(C=O)c2nc(N3CCN(c4nc(N)c5cc(OC)c(OC)cc5n4)CC3)ncc2c1=O [Example 14]	-1.9	-4.8	-13.9	-11	+7.3%
COc1cc2nc(N3CCN(c4ncc(C(N)=O)c(C)n4)CC3)nc(N)c2cc1OC [Example 40]	-1.4	-15.9	-18.4	-8.2	+5.8%
COc1cc2nc(N3CCN(c4ncc5c(=O)n(-c6ccccc6)ccc5n4)CC3)nc(N)c2cc1OC [Example 9]	-1.5	-8.1	-9.6	-5.1	+4.3%
CCCCCCCN1Cc2nc(N3CCN(c4nc(N)c5cc(OC)c(OC)cc5n4)CC3)ncc2C1=O [Example 90]	2.3	-6.8	-15.5	-2.7	+8.7%
COc1cc2nc(N3CCN(c4ncc5c(=O)n(C(C)C)ccc5n4)CC3)nc(N)c2cc1OC [Example 6]	-1.5	-13.8	-16.7	-9.9	+5.1%
COc1cc2nc(N3CCN(C4=NCc5c(ccn(C)c5=O)N4)CC3)nc(N)c2cc1OC [Example 34]	0.5	-9.1	-13.9	-7.2	+2.3%
COc1cc2cnc(N3CCN(c4nc(N)c5cc(OC)c(OC)cc5n4)CC3)nc2cc1OC [Example 71]	0.5	-13.4	-19.1	-9.6	+15.9%
COc1cc2nc(N3CCN(c4ncc5c(n4)CCCC5=O)CC3)nc(N)c2cc1OC [Example 33]	-20.4	-27	-32.1	-9.7	+17.5%
CCN(CC)C(=O)c1cnc(N2CCN(c3nc(N)c4cc(OC)c(OC)cc4n3)CC2)nc1NC [Example 77]	-31	-32.9	-36.2	-13.8	+25.1%
